Literature values in article PMC9460038, “Antigiardial Activity of Foeniculum vulgare Hexane Extract and Some of Its Constituents” (Plants, 2022).

Test system: multidrug resistant (MDR) clinical isolates of Mycobacterium tuberculosis
Conditions: three MDR clinical isolates; cited from earlier work

Q: Which MIC does the source give for `CCCCCC/C=C/C=C/C=O` [Trans, trans-2,4-undecadienal, trans, trans-2,4-undecadienal] here?
A: 25 to 50 µg/mL
